Measurements: patent US20010018071A1, “Oral 2-methyl-thieno-benzodiazepine formulation” (priority 1995, published 2001)

How the values were obtained:
[1] = Detection of radiolabelled compound in saliva; type: in vivo
Protocol: The anhydrous Form I 2-methyl-4-(4-methyl-1-piperazinyl)-10H-thieno-[2,3-b][1,5]benzodiazepine compound is effective over a wide dosage range, the actual dose administered being dependent on the condition being treated. For example, in the treatment of adult humans, dosages of from about 0.25 to 50 mg, preferably from 1 to 30 mg, and most preferably 1 to 20 mg per day may be used. A once a day dosage is normally sufficient, although divided doses may be administered. For treatment of central nervous system disorders, a dose range of from 1 to 30 mg, preferably 1 to 20 mg per day is suitable. Radiolabelled Form I 2-methyl-4-(4-methyl-1-piperazinyl)-10H-thieno-[2,3-b]

[2] = Polymorph stability and transformation; type: physicochemical; details: for polymorph stability: anhydrous crystal forms
Excerpt: Unfortunately, anhydrous Form II olanzapine is metastable and is therefore not well suited for commercial use in pharmaceutical formulations. Applicants have discovered that the pharmaceutically elegant anhydrous Form I olanzapine can be formulated in its substantially pure form as a stable solid oral preparation. Such formulation provides assurance of a uniform pharmaceutically elegant product substantially free of Form II impurity in order to comply with regulatory requirements.
Further certain excipients exacerbate physical instability. For commercial pharmaceutical development and compliance with regulatory guidelines, it is important to assure that marketed formulations comprise a uniform pharmaceutically elegant substantially pure anyhydrous Form I 2-methyl-4-(4-methyl-1-piperazinyl)-10H-thieno[2,3-b] [1,5] benzodiazepine compound as the active ingredient and most preferably the formulation is free from undesired discolorations.
(§1) The Form I 2-methyl-4-(4-methyl-1-piperazinyl)-10H-thieno[2,3-b]

[3] = Discoloration of olanzapine on contact with excipients; type: physicochemical
Excerpt: Further, the discoloration was exacerbated by ambient air conditions, at elevated temperatures, and by moist environments.
as §1

Structure (SMILES): Cc1cc2c(s1)Nc1ccccc1N=C2N1CCN(C)CC1 [2-methyl-4-(4-methyl-1-piperazinyl)-10H-thieno-[2,3-b] [1,5]benzodiazepine]
- detection in saliva [1]: can be detected in the saliva

Structure (SMILES): Cc1cc2c(s1)Nc1ccccc1N=C2N1CCN(C)CC1 [Form I olanzapine, 2-methyl-4-(4-methyl-1-piperazinyl)-10H-thieno[2,3-b][1,5] benzodiazepine]
- polymorph stability [2]: most stable known form
- polymorphic conversion ([2]; contact with methylene chloride): can be converted to the less desirable polymorphic forms

Structure (SMILES): Cc1cc2c(s1)Nc1ccccc1N=C2N1CCN(C)CC1 [anhydrous Form II olanzapine, 2-methyl-4-(4-methyl-1-piperazinyl)-10H-thieno[2,3-b][1,5] benzodiazepine]
- polymorph stability [2]: metastable

Structure (SMILES): Cc1cc2c(s1)Nc1ccccc1N=C2N1CCN(C)CC1 [olanzapine, 2-methyl-4-(4-methyl-1-piperazinyl)-10H-thieno[2,3-b][1,5] benzodiazepine]
- discoloration ([3]; contacted with certain excipients including powder blends): undergoes undesirable discoloration
- discoloration ([3]; polyethylene glycol contact, particularly under moist conditions): produces undesired discoloration
